Legend:
Type in all cases: in vivo
Amaranthus retroflexus [1] = test: Pre-emergence herbicidal action; conditions: 1280 g/ha, scored visually after about 3 weeks vs untreated controls
Method in brief: (§1)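 Pre-emergence soil-surface spray at 1280 g/ha, compounds formulated as WP or EC, applied in 600 l/ha water containing 0.5% additive over freshly sown, soil-covered seeds. Pots then kept in greenhouse; damage rated visually as percent of untreated controls about 3 weeks later, 0% = like control.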

Setaria viridis [2] = test: Pre-emergence herbicidal action; conditions: 1280 g/ha, scored visually after about 3 weeks vs untreated controls
Method in brief: as §1

Viola tricolor [3] = test: Pre-emergence herbicidal action; conditions: 1280 g/ha, scored visually after about 3 weeks vs untreated controls
Method in brief: as §1

Lolium rigidum = test: Pre-emergence herbicidal action; conditions: 1280 g/ha, scored visually after about 3 weeks vs untreated controls
Method in brief: as §1

Stellaria media [4] = test: Pre-emergence herbicidal action; conditions: 1280 g/ha, scored visually after about 3 weeks vs untreated controls
Method in brief: as §1

Echinochloa crus-galli [5] = test: Pre-emergence herbicidal action; conditions: 1280 g/ha, scored visually after about 3 weeks vs untreated controls
Method in brief: as §1

Abutilon theophrasti [6] = test: Pre-emergence herbicidal action; conditions: 1280 g/ha, scored visually after about 3 weeks vs untreated controls
Method in brief: as §1

Veronica persica [7] = test: Pre-emergence herbicidal action; conditions: 1280 g/ha, scored visually after about 3 weeks vs untreated controls
Method in brief: as §1

Pharbitis purpurea [8] = test: Pre-emergence herbicidal action; conditions: 1280 g/ha, scored visually after about 3 weeks vs untreated controls
Method in brief: as §1

Matricaria inodora = test: Pre-emergence herbicidal action; conditions: 1280 g/ha, scored visually after about 3 weeks vs untreated controls
Method in brief: as §1

Polygonum convolvulus [9] = test: Pre-emergence herbicidal action; conditions: 1280 g/ha, scored visually after about 3 weeks vs untreated controls
Method in brief: as §1

Alopecurus myosuroides [10] = test: Pre-emergence herbicidal action; conditions: 1280 g/ha, scored visually after about 3 weeks vs untreated controls
Method in brief: as §1

Setaria viridis [11] = test: Post-emergence herbicidal action; conditions: 1280 g/ha, rated visually after about 3 weeks vs untreated controls
Method in brief: (§2)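 Visual rating against untreated plants, about 3 weeks post-treatment, on a 0-100% scale where 100% means plant death. Treatment: 1280 g/ha of WP/EC preparations with 0.5% additive in 600 l/ha water, sprayed on one-leaf-stage weeds grown in greenhouse sandy loam.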

Viola tricolor [12] = test: Post-emergence herbicidal action; conditions: 1280 g/ha, rated visually after about 3 weeks vs untreated controls
Method in brief: as §2

Stellaria media [13] = test: Post-emergence herbicidal action; conditions: 1280 g/ha, rated visually after about 3 weeks vs untreated controls
Method in brief: as §2

Polygonum convolvulus [14] = test: Post-emergence herbicidal action; conditions: 1280 g/ha, rated visually after about 3 weeks vs untreated controls
Method in brief: as §2

Hordeum murinum = test: Pre-emergence herbicidal action; conditions: 1280 g/ha, scored visually after about 3 weeks vs untreated controls
Method in brief: as §1

Echinochloa crus-galli [15] = test: Post-emergence herbicidal action; conditions: 1280 g/ha, rated visually after about 3 weeks vs untreated controls
Method in brief: as §2

Abutilon theophrasti [16] = test: Post-emergence herbicidal action; conditions: 1280 g/ha, rated visually after about 3 weeks vs untreated controls
Method in brief: as §2

Veronica persica [17] = test: Post-emergence herbicidal action; conditions: 1280 g/ha, rated visually after about 3 weeks vs untreated controls
Method in brief: as §2

Pharbitis purpurea [18] = test: Post-emergence herbicidal action; conditions: 1280 g/ha, rated visually after about 3 weeks vs untreated controls
Method in brief: as §2

Alopecurus myosuroides [19] = test: Post-emergence herbicidal action; conditions: 1280 g/ha, rated visually after about 3 weeks vs untreated controls
Method in brief: as §2

Avena fatua = test: Pre-emergence herbicidal action; conditions: 1280 g/ha, scored visually after about 3 weeks vs untreated controls
Method in brief: as §1

Amaranthus retroflexus [20] = test: Post-emergence herbicidal action; conditions: 1280 g/ha, rated visually after about 3 weeks vs untreated controls
Method in brief: as §2

Row | SMILES | herbicidal activity on Amaranthus retroflexus (Amaranthus retroflexus [1]) | herbicidal activity on Setaria viridis (Setaria viridis [2]) | herbicidal activity on Viola tricolor (Viola tricolor [3]) | herbicidal activity on Lolium rigidum (Lolium rigidum) | herbicidal activity on Stellaria media (Stellaria media [4]) | herbicidal activity on Echinochloa crus-galli (Echinochloa crus-galli [5]) | herbicidal activity on Abutilon theophrasti (Abutilon theophrasti [6]) | herbicidal activity on Matricaria inodora (Matricaria inodora) | herbicidal activity on Polygonum convolvulus (Polygonum convolvulus [9]) | herbicidal activity on Alopecurus myosuroides (Alopecurus myosuroides [10]) | herbicidal activity on Setaria viridis (Setaria viridis [11]) | herbicidal activity on Viola tricolor (Viola tricolor [12]) | herbicidal activity on Stellaria media (Stellaria media [13]) | herbicidal activity on Polygonum convolvulus (Polygonum convolvulus [14]) | herbicidal activity on Hordeum murinum (Hordeum murinum) | herbicidal activity on Abutilon theophrasti (Abutilon theophrasti [16]) | herbicidal activity on Veronica persica (Veronica persica [17]) | herbicidal activity on Alopecurus myosuroides (Alopecurus myosuroides [19]) | herbicidal activity on Avena fatua (Avena fatua) | herbicidal activity on Amaranthus retroflexus (Amaranthus retroflexus [20]) | other results
1 | CCn1cc(Sc2ccc(F)cc2)c(Oc2ncc(F)cn2)n1 [Example I-211] | 100% | 100% | 100% | 100% | 100% | 90% | 90% | 90% | 90% | 90% | 90% | 80% | 100% | 100% |  |  |  |  |  |  | herbicidal activity on Veronica persica (Veronica persica [7]): 100%; herbicidal activity on Pharbitis purpurea (Pharbitis purpurea [8]): 80%
2 | Fc1ccc(Sc2c(Oc3ncccn3)nn3c2CCOCC3)c(F)c1 [Example I-163] | 90% | 100% | 100% |  | 90% | 100% | 100% | 100% | 100% | 90% | 90% | 90% | 80% | 100% | 90% | 90% | 80% | 90% |  |  | herbicidal activity on Veronica persica (Veronica persica [7]): 90%; herbicidal activity on Echinochloa crus-galli (Echinochloa crus-galli [15]): 90%; herbicidal activity on Pharbitis purpurea (Pharbitis purpurea [18]): 90%
3 | CCc1c(Sc2ccccc2)c(Oc2ncc(F)cn2)nn1C [Example I-155] | 100% | 100% | 100% | 80% | 100% | 90% | 100% | 100% |  | 100% | 80% | 100% | 90% |  | 100% | 80% | 100% | 90% | 100% | 100% | herbicidal activity on Pharbitis purpurea (Pharbitis purpurea [18]): 80%
4 | CCc1c(Sc2ccc(F)cc2)c(Oc2ncc(F)cn2)nn1C [Example I-183] | 100% | 100% | 100% | 100% | 100% | 100% | 100% | 100% | 100% | 100% | 100% | 100% | 90% | 90% | 100% | 90% | 90% | 90% |  | 100% | herbicidal activity on Echinochloa crus-galli (Echinochloa crus-galli [15]): 90%; herbicidal activity on Pharbitis purpurea (Pharbitis purpurea [18]): 100%
5 | Fc1ccc(Sc2c(Oc3ncc(F)cn3)nn3c2CCOCC3)cc1 [Example I-122] | 100% | 100% | 100% |  | 100% | 100% | 100% | 100% | 100% | 100% | 100% | 90% | 90% | 100% | 90% | 100% | 90% | 90% | 80% |  | herbicidal activity on Veronica persica (Veronica persica [7]): 100%; herbicidal activity on Echinochloa crus-galli (Echinochloa crus-galli [15]): 90%; herbicidal activity on Pharbitis purpurea (Pharbitis purpurea [18]): 90%
6 | CCc1c(Sc2ccc(F)cc2F)c(Oc2ncccn2)nn1C [Example I-136] | 100% | 100% | 100% | 100% | 100% | 90% | 100% | 100% | 100% | 100% |  | 100% | 90% |  |  | 90% | 100% |  | 90% | 100% | 
7 | COc1cnc(Oc2nn(C)c(C)c2Sc2ccc(F)cc2F)nc1 [Example I-205] | 100% | 100% | 100% | 100% | 100% | 100% | 100% | 100% | 100% | 100% | 80% | 90% |  |  | 100% | 90% |  |  | 100% | 90% | herbicidal activity on Veronica persica (Veronica persica [7]): 100%; herbicidal activity on Pharbitis purpurea (Pharbitis purpurea [8]): 100%
8 | CCn1cc(Sc2ccc(F)cc2)c(Oc2ncccn2)n1 [Example I-038] | 100% | 100% | 100% |  | 100% | 80% | 80% | 90% | 80% | 80% |  | 90% |  |  |  |  |  |  |  |  | herbicidal activity on Pharbitis purpurea (Pharbitis purpurea [8]): 80%
9 | CCc1c(Sc2ccc(F)c(F)c2)c(Oc2ncccn2)nn1C [Example I-062] | 100% | 100% | 100% | 80% | 100% | 100% | 100% | 100% | 100% | 100% |  | 100% | 90% | 90% | 100% | 100% |  | 80% | 80% | 100% | herbicidal activity on Pharbitis purpurea (Pharbitis purpurea [8]): 80%
